Assay results: ChEMBL document CHEMBL5055633, “Amphipathic Barbiturates as Mimics of Antimicrobial Peptides and the Marine Natural Products Eusynstyelamides with Activity against Multi-resistant Clinical Isolates” (J Med Chem, 2021)

How the values were obtained:
Escherichia coli [1] = test: Antimicrobial activity against imipenem-type carbapenemase-26 producing Escherichia coli 50857972 assessed as reduction in bacterial growth incubated for 48 hrs by microdilution method; format: functional
[2] = Hemolytic activity in human erythrocytes incubated for 1 hr by microplate reader; format: functional, cell-based; details: erythrocyte
Escherichia coli [3] = test: Antimicrobial activity against verona integron-encoded metallo-beta-lactamase-29-producing Escherichia coli 50639799 assessed as reduction in bacterial growth incubated for 48 hrs by microdilution method; format: functional
Staphylococcus aureus [4] = test: Antimicrobial activity against extended spectrum-lactamase-carbapenemas producing Staphylococcus aureus strain WIS assessed as reduction in bacterial growth incubated for 48 hrs by microdilution method; format: functional
Acinetobacter baumannii [5] = test: Antimicrobial activity against oxacillinase-58 producing Acinetobacter baumannii K12-21 assessed as reduction in bacterial growth incubated for 48 hrs by microdilution method; format: functional
Pseudomonas aeruginosa [6] = test: Antimicrobial activity against New Delhi metallo-beta lactamase-1 producing Pseudomonas aeruginosa 50692172 assessed as reduction in bacterial growth incubated for 48 hrs by microdilution method; format: functional
Escherichia coli [7] = test: Antimicrobial activity against Escherichia coli ATCC 25922 assessed as reduction in bacterial growth incubated for 48 hrs by microdilution susceptibility test; format: functional
Staphylococcus aureus [8] = test: Antimicrobial activity against extended spectrum-lactamase-carbapenemas producing Staphylococcus aureus strain 85/2082 assessed as reduction in bacterial growth incubated for 48 hrs by microdilution method; format: functional
Escherichia coli [9] = test: Antimicrobial activity against oxacillinase-producing Escherichia coli 50579417 assessed as reduction in bacterial growth incubated for 48 hrs by microdilution method; format: functional
Enterococcus faecium [10] = test: Antimicrobial activity against extended spectrum-lactamase-carbapenemas producing Enterococcus faecium strain TUH.50-22 assessed as reduction in bacterial growth incubated for 48 hrs by microdilution method; format: functional
Staphylococcus aureus [11] = test: Antimicrobial activity against Staphylococcus aureus ATCC 9144 assessed as reduction in bacterial growth incubated for 48 hrs by microdilution susceptibility test; format: functional
Acinetobacter baumannii [12] = test: Antimicrobial activity against oxacillinase-23 producing Acinetobacter baumannii K47-42 assessed as reduction in bacterial growth incubated for 48 hrs by microdilution method; format: functional
[13] = Antimicrobial activity against carbapenemase producing Klebsiella pneumoniae K47-25 assessed as reduction in bacterial growth incubated for 48 hrs by microdilution method; format: functional
Pseudomonas aeruginosa [14] = test: Antimicrobial activity against imipenem-type carbapenemase-14 producing Pseudomonas aeruginosa K44-24 assessed as reduction in bacterial growth incubated for 48 hrs by microdilution method; format: functional
[15] = system: Corynebacterium glutamicum; test: Antimicrobial activity against Corynebacterium glutamicum ATCC 13032 assessed as reduction in bacterial growth incubated for 48 hrs by microdilution susceptibility test; format: functional
[16] = Antimicrobial activity against New Delhi metallo-beta lactamase-1 and oxacillinase -181 producing Klebsiella pneumoniae 50531633 assessed as reduction in bacterial growth incubated for 48 hrs by microdilution method; format: functional
Escherichia coli [17] = test: Antimicrobial activity against New Delhi metallo-beta lactamase-1 producing Escherichia coli 50676002 assessed as reduction in bacterial growth incubated for 48 hrs by microdilution method; format: functional
Escherichia coli [18] = test: Antimicrobial activity against New Delhi metallo-beta lactamase-1 producing Escherichia coli 50739822 assessed as reduction in bacterial growth incubated for 48 hrs by microdilution method; format: functional
Pseudomonas aeruginosa [19] = test: Antimicrobial activity against verona integron-encoded metallo-beta-lactamase producing Pseudomonas aeruginosa 50692520 assessed as reduction in bacterial growth incubated for 48 hrs by microdilution method; format: functional
Staphylococcus aureus [20] = test: Antimicrobial activity against extended spectrum-lactamase-carbapenemas producing Staphylococcus aureus N315 assessed as reduction in bacterial growth incubated for 48 hrs by microdilution method; format: functional
Enterococcus faecium [21] = test: Antimicrobial activity against extended spectrum-lactamase-carbapenemas producing Enterococcus faecium strain K36-18 assessed as reduction in bacterial growth incubated for 48 hrs by microdilution method; format: functional
Staphylococcus aureus [22] = test: Antimicrobial activity against extended spectrum-lactamase-carbapenemas producing Staphylococcus aureus strain IHT 99040 assessed as reduction in bacterial growth incubated for 48 hrs by microdilution method; format: functional
Enterococcus faecium [23] = test: Antimicrobial activity against extended spectrum-lactamase-carbapenemas producing Enterococcus faecium strain 50673722 assessed as reduction in bacterial growth incubated for 48 hrs by microdilution method; format: functional
Pseudomonas aeruginosa [24] = test: Antimicrobial activity against verona integron-encoded metallo-beta-lactamase-2 producing Pseudomonas aeruginosa K34-7 assessed as reduction in bacterial growth incubated for 48 hrs by microdilution method; format: functional
Pseudomonas aeruginosa [25] = test: Antimicrobial activity against verona integron-encoded metallo-beta-lactamase-4 producing Pseudomonas aeruginosa K34-73 assessed as reduction in bacterial growth incubated for 48 hrs by microdilution method; format: functional
[26] = Antimicrobial activity against verona integron-encoded metallo-beta-lactamase -1 producing Klebsiella pneumoniae 50667959 assessed as reduction in bacterial growth incubated for 48 hrs by microdilution method; format: functional
Enterococcus faecium [27] = test: Antimicrobial activity against extended spectrum-lactamase-carbapenemas producing Enterococcus faecium strain 50901530 assessed as reduction in bacterial growth incubated for 48 hrs by microdilution method; format: functional
MRC5 = test: Cytotoxicity against human MRC5 cells assessed as reduction in cell viability incubated for 24 hrs by colorimetric tetrazolium assay; format: functional, cell-based; details: MRC5, 24 h
Staphylococcus aureus [28] = test: Antimicrobial activity against extended spectrum-lactamase-carbapenemas producing Staphylococcus aureus NCTC 10442 assessed as reduction in bacterial growth incubated for 48 hrs by microdilution method; format: functional
[29] = Antimicrobial activity against New Delhi metallo-beta lactamase-1 Klebsiella pneumoniae K66-45 assessed as reduction in bacterial growth incubated for 48 hrs by microdilution method; format: functional
Acinetobacter baumannii [30] = test: Antimicrobial activity against oxacillinase-23 producing Acinetobacter baumannii K63-58 assessed as reduction in bacterial growth incubated for 48 hrs by microdilution method; format: functional
Acinetobacter baumannii [31] = test: Antimicrobial activity against oxacillinase-24 producing Acinetobacter baumannii K55-13 assessed as reduction in bacterial growth incubated for 48 hrs by microdilution method; format: functional
Acinetobacter baumannii [32] = test: Antimicrobial activity against oxacillinase-23 producing Acinetobacter baumannii K44-35 assessed as reduction in bacterial growth incubated for 48 hrs by microdilution method; format: functional
Enterococcus faecium [33] = test: Antimicrobial activity against extended spectrum-lactamase-carbapenemas producing Enterococcus faecium strain 50758899 assessed as reduction in bacterial growth incubated for 48 hrs by microdilution method; format: functional
[34] = Antimicrobial activity against oxacillinase-245 producing Klebsiella pneumoniae 50625602 assessed as reduction in bacterial growth incubated for 48 hrs by microdilution method; format: functional
HepG2 = test: Cytotoxicity against human HepG2 cells assessed as reduction in cell viability incubated for 24 hrs by colorimetric tetrazolium assay; format: functional, cell-based; details: HepG2, 24 h
Pseudomonas aeruginosa [35] = test: Antimicrobial activity against Pseudomonas aeruginosa PAO1 assessed as reduction in bacterial growth incubated for 48 hrs by microdilution susceptibility test; format: functional

Compound | MIC (Escherichia coli [1]) [µg/mL] | EC50 [2] [µg/mL] | MIC (Escherichia coli [3]) [µg/mL] | MIC (Staphylococcus aureus [4]) [µg/mL] | MIC (Acinetobacter baumannii [5]) [µg/mL] | MIC (Pseudomonas aeruginosa [6]) [µg/mL] | MIC (Escherichia coli [7]) [µg/mL] | MIC (Staphylococcus aureus [8]) [µg/mL] | MIC (Escherichia coli [9]) [µg/mL] | MIC (Enterococcus faecium [10]) [µg/mL] | MIC (Staphylococcus aureus [11]) [µg/mL] | MIC (Acinetobacter baumannii [12]) [µg/mL] | MIC [13] [µg/mL] | MIC (Pseudomonas aeruginosa [14]) [µg/mL] | MIC [15] [µg/mL] | MIC [16] [µg/mL] | MIC (Escherichia coli [17]) [µg/mL] | MIC (Escherichia coli [18]) [µg/mL] | MIC (Pseudomonas aeruginosa [19]) [µg/mL] | MIC (Staphylococcus aureus [20]) [µg/mL] | also measured
N=C(N)NCCCCN1C(=O)N(CCCCNC(=N)N)C(=O)C(Cc2ccc(Br)c(Cl)c2)(Cc2ccc(Br)c(Cl)c2)C1=O.O=C(O)C(F)(F)F.O=C(O)C(F)(F)F | 4 | 77 | 4 | 2 | 8 | 32 | 2 | 2 | 4 | 2 | 0.5 | 8 | 4 | 16 | 0.25 | 4 | 4 | 4 | 16 | 2 | MIC (Enterococcus faecium [21]): 4 µg/mL; MIC (Staphylococcus aureus [22]): 2 µg/mL; MIC (Enterococcus faecium [23]): 4 µg/mL; MIC (Pseudomonas aeruginosa [24]): 16 µg/mL; MIC (Pseudomonas aeruginosa [25]): 8 µg/mL; MIC [26]: 8 µg/mL; MIC (Enterococcus faecium [27]): 2 µg/mL; IC50 (MRC5): 36 µg/mL; MIC (Staphylococcus aureus [28]): 4 µg/mL; MIC [29]: 8 µg/mL; MIC (Acinetobacter baumannii [30]): 8 µg/mL; MIC (Acinetobacter baumannii [31]): 8 µg/mL; MIC (Acinetobacter baumannii [32]): 8 µg/mL; MIC (Enterococcus faecium [33]): 4 µg/mL; MIC [34]: 4 µg/mL; IC50 (HepG2): 15 µg/mL; MIC (Pseudomonas aeruginosa [35]): 8 µg/mL
CC(C)(C)c1ccc(CC2(Cc3ccc(C(C)(C)C)cc3)C(=O)N(CCCCNC(=N)N)C(=O)N(CCCCNC(=N)N)C2=O)cc1.O=C(O)C(F)(F)F.O=C(O)C(F)(F)F | 4 | 77 | 4 | 2 | 4 | 16 | 2 | 2 | 4 | 2 | 1 | 8 | 4 | 16 | < 0.13 | 4 | 4 | 4 | 16 | 2 | MIC (Enterococcus faecium [21]): 2 µg/mL; MIC (Staphylococcus aureus [22]): 2 µg/mL; MIC (Enterococcus faecium [23]): 2 µg/mL; MIC (Pseudomonas aeruginosa [24]): 16 µg/mL; MIC (Pseudomonas aeruginosa [25]): 8 µg/mL; MIC [26]: 16 µg/mL; MIC (Enterococcus faecium [27]): 4 µg/mL; IC50 (MRC5): 14 µg/mL; MIC (Staphylococcus aureus [28]): 2 µg/mL; MIC [29]: 4 µg/mL; MIC (Acinetobacter baumannii [30]): 4 µg/mL; MIC (Acinetobacter baumannii [31]): 8 µg/mL; MIC (Acinetobacter baumannii [32]): 8 µg/mL; MIC (Enterococcus faecium [33]): 2 µg/mL; MIC [34]: 4 µg/mL; IC50 (HepG2): 28 µg/mL; MIC (Pseudomonas aeruginosa [35]): 4 µg/mL
NCCCCN1C(=O)N(CCCCN)C(=O)C(Cc2ccc(C(F)(F)F)cc2)(Cc2ccc(C(F)(F)F)cc2)C1=O.O=C(O)C(F)(F)F.O=C(O)C(F)(F)F | > 32 | > 398 | > 32 | > 32 | > 32 | > 32 | 128 | > 32 | > 32 | > 32 | 64 | > 32 | > 32 | > 32 | 4 | > 32 | > 32 | > 32 | > 32 | > 32 | MIC (Enterococcus faecium [21]): > 32 µg/mL; MIC (Staphylococcus aureus [22]): > 32 µg/mL; MIC (Enterococcus faecium [23]): > 32 µg/mL; MIC (Pseudomonas aeruginosa [24]): > 32 µg/mL; MIC (Pseudomonas aeruginosa [25]): > 32 µg/mL; MIC [26]: > 32 µg/mL; MIC (Enterococcus faecium [27]): > 32 µg/mL; IC50 (MRC5): 16 µg/mL; MIC (Staphylococcus aureus [28]): > 32 µg/mL; MIC [29]: > 32 µg/mL; MIC (Acinetobacter baumannii [30]): > 32 µg/mL; MIC (Acinetobacter baumannii [31]): > 32 µg/mL; MIC (Acinetobacter baumannii [32]): > 32 µg/mL; MIC (Enterococcus faecium [33]): > 32 µg/mL; MIC [34]: > 32 µg/mL; IC50 (HepG2): 40 µg/mL; MIC (Pseudomonas aeruginosa [35]): 64 µg/mL
N=C(N)NCCCCN1C(=O)N(CCCCNC(=N)N)C(=O)C(Cc2ccc(C(F)(F)F)cc2)(Cc2ccc(C(F)(F)F)cc2)C1=O.O=C(O)C(F)(F)F.O=C(O)C(F)(F)F | 16 | > 449 | 16 | 4 | > 32 | > 32 | 8 | 4 | 32 | 32 | 2 | > 32 | > 32 | > 32 | 0.25 | > 32 | 32 | 32 | > 32 | 4 | MIC (Enterococcus faecium [21]): 32 µg/mL; MIC (Staphylococcus aureus [22]): 8 µg/mL; MIC (Enterococcus faecium [23]): 32 µg/mL; MIC (Pseudomonas aeruginosa [24]): > 32 µg/mL; MIC (Pseudomonas aeruginosa [25]): > 32 µg/mL; MIC [26]: > 32 µg/mL; MIC (Enterococcus faecium [27]): 8 µg/mL; IC50 (MRC5): 74 µg/mL; MIC (Staphylococcus aureus [28]): 4 µg/mL; MIC [29]: > 32 µg/mL; MIC (Acinetobacter baumannii [30]): > 32 µg/mL; MIC (Acinetobacter baumannii [31]): > 32 µg/mL; MIC (Acinetobacter baumannii [32]): > 32 µg/mL; MIC (Enterococcus faecium [33]): > 32 µg/mL; MIC [34]: > 32 µg/mL; IC50 (HepG2): 104 µg/mL; MIC (Pseudomonas aeruginosa [35]): 64 µg/mL
